Results taken from patent publication US8003766B2, “Monoclonal antibody specific to ochratoxin A” (priority 2009, dated 2011).

How the values were obtained:
9C9H9 mAb (anti-OTA mAb) [1] = assay: direct competitive ELISA (cdELISA); format: binding, mouse; conditions: for concentrations causing 50% inhibition (IC50) binding of mAb to OTA-OVA by free toxin: FIG. 2A
Description: (§1) Both the cdELISA (direct competitive ELISA) and ciELISA (indirect competitive ELISA) were used to determine the specificity of 9C9H9 mAb.
Another ELISA method (direct competitive ELISA) was used to characterize mAb. The rabbit anti-mouse-Fc antibody was diluted in PBS (2 μg/mL), and 0.1 mL of the diluted form was coated onto each well. After incubation at 37° C. for 1 h and washing with Tween-PBS. The anti-OTA mAb supernatant was diluted in PBS (5 μg/mL) and 0.1 mL of the diluted form was used to coat each well. After the plate had been incubated at 4° C. overnight, it was washed with Tween-PBS followed by blocking with gelatin-PBS at 37° C. for 30 min. The plate was washed again with Tween-PBS four times, and then OTA standard (0.05 mL/well in PBS) concentrations from 0.01 to 100 ng/mL or samples together with the OTA-HRP conjugate (30 ng/mL, in PBS, 0.05 mL/well) were added and incubated at 37° C. for 50 min. The plate was washed four times with PBS-Tween, and 0.1 mL of TMB substrate solution was added. After incubation at room temperature in the dark for 10 min, the reaction was terminated by adding 0.1 mL of 1 N HCl. The absorbance at 450 nm was determined in the Vmax automatic ELISA reader.

9C9H9 mAb (anti-OTA mAb) [2] = assay: indirect competitive ELISA (ciELISA); format: binding, mouse; conditions: for IC50 of binding of mAb to OTA-OVA by free toxin: OTA-OVA coated as solid-phase antigen, FIG. 2B
Description: as §1
Indirect Competitive ELISA was than used to characterize each mAb. Briefly, each well of a microtiter plate was coated with 0.1 mL of the OTA-OVA and kept at 4° C. overnight. After the plate had been washed four times with Tween-PBS (0.35 mL/well; 0.05% Tween 20 in PBS) using an automated ELISA washer, 0.17 mL of gelatin-PBS (0.17 mL/well; 0.1% gelatin in PBS) was added and allowed to incubate at 37° C. for 30 min. The plate was washed again and 0.05 mL of OTA standard with concentrations from 0.01 to 100 ng/mL or extracted samples (0.05 mL/well in PBS) were added to each well, and then the anti-OTA mAb (25 ng/mL in PBS, 0.05 mL/well) was added to all wells and incubated at 37° C. for 50 min. After incubation, the plate was washed four times with Tween-PBS, and 0.1 mL of goat antimouse IgG-HRP conjugate (1:20000 dilution) was added and incubated at 37° C. for 45 min. The plate was washed four times with Tween-PBS, and 0.1 mL of TMB substrate solution was added. After 10 min of incubation at room temperature, 0.1 mL of 1 N hydrochloric acid was added to stop the reaction. Absorbance at 450 nm was determined in a Vmax automatic ELISA reader.

[3] = at a concentration as high as 100 μg/mL

Row | Compound | concentrations causing 50% inhibition (IC50) binding of mAb to OTA-OVA by free toxin (9C9H9 mAb (anti-OTA mAb) [1]) [ng/mL] | IC50 of binding of mAb to OTA-OVA by free toxin (9C9H9 mAb (anti-OTA mAb) [2]) [ng/mL] | inhibition of the binding of mAb to the marker antigen (OTA-HRP) (9C9H9 mAb (anti-OTA mAb) [1]; [3]) | inhibition of the binding of mAb to the marker antigen (OTA-OVA) (9C9H9 mAb (anti-OTA mAb) [2]; [3])
1 | C[C@@H]1Cc2c(Cl)cc(C(=O)N[C@@H](Cc3ccccc3)C(=O)O)c(O)c2C(=O)O1 [OTA, ochratoxin A] | 0.32 | 0.28 |  | 
2 | C[C@@H]1Cc2ccc(C(=O)N[C@@H](Cc3ccccc3)C(=O)O)c(O)c2C(=O)O1 [OTB, ochratoxin B] | 0.17 | 0.35 |  | 
3 | CCOC(=O)[C@H](Cc1ccccc1)NC(=O)c1cc(Cl)c2c(c1O)C(=O)O[C@H](C)C2 [OTC, ochratoxin C] | 0.28 | 0.25 |  | 
4 | N[C@@H](Cc1ccccc1)C(=O)O [phenylalanine] |  |  | did not inhibit | did not inhibit
